Here are results for 2 compounds from patent EP1707622A1, “USE OF COMPOUNDS THAT REGULATE HDAC6 TUBULIN DEACETYLASE ACTIVITY IN THE PREPARATION OF PHARMACEUTICAL COMPOSITIONS, METHOD OF IDENTIFYING THE AFOR[…], SAID PHARMACEUTICAL COMPOUNDS AND APPLICATIONS THEREOF” (UNIVERSIDAD AUTONOMA DE MADRID CIUDAD UNIVERSITARIA …, priority 2004, dated 2005).

The assay concerns J77 cells. As to the kind of experiment: CD3 clustering in the central region of the immunological synapse. Conditions: J77 cells, relative to cells transfected with the deficient mutant or lymphocytes treated with TSA; Figure 5B. In kind it is cell-based, human.

Where a SMILES comes first, the peptide text is derived from it. [ ]: non-standard residue; d: D form. Aoe = N[C@@H](CCCCCC(=O)[C@@H]1CO1)C(=O)O

As to `CCCC(=O)[O-].[Na+]` [sodium butyrate], the “percentage of mature synapses” value is reported as “neither trapoxin B nor sodium butyrate modified it in a significant manner”.
Then `O=C1N[C@@H](Cc2ccccc2)C(=O)N2CCC[C@@H]2C(=O)N[C@@H](CCCCCC(=O)[C@@H]2CO2)C(=O)N[C@H]1Cc1ccccc1` [trapoxin B] (cyclo(FF[dP][Aoe])), with “neither trapoxin B nor sodium butyrate modified it in a significant manner”.
